Legend:
[1] = tested on: choline acetyltransferase (ChAT); experiment: ChAT activity in hippocampus and frontal cortex homogenates of ovariectomized rats, radio-labelled assay of acetylcholine bio-synthesis; type: in vivo, female Sprague-Dawley rats; settings: daily s.c. or oral gavage for 3 or 10 days, raloxifene HCl 3 mg/kg/day, estradiol benzoate 0.03 or 0.3 mg/kg/day; for levels of ChAT, difference from the sham controls: OVX rats
Protocol: Forty female Sprague-Dawley rats (weight range of 300 to 325 g, six months old) are obtained from Harlan. The animals are either bilaterally ovariectomized (OVX) or exposed to a Sham surgical procedure, and then shipped after two weeks. Upon arrival, they are housed in metal hanging cages in groups of 3 or 4 per cage and have ad libitum access to food and water for one week. Room temperature is maintained at 22.2°±1.70° C. with a minimum relative humidity of 40%. The photoperiod in the room is 12 hours light and 12 hours dark.
The animals are dosed daily by subcutaneous injection or oral gavage with either raloxifene hydrochloride, at 3 mg/kg/day in a vehicle containing 10% cyclodextrin, estradiol benzoate at 0.03 or 0.3 mg/kg/day, or vehicle control. Animals were treated for 3 or 10 days. There are twenty animals per each dosing regimen. At the appropriate time intervals, the animals are sacrificed and their brains dissected. The particular portions of the brains are homogenized and assayed. Homogenates from the hippocampus and frontal cortex were processed and determination of ChAT activity was made by a radio-labelled assay of the bio-synthesis of acetylcholine. This procedure may be found in Schoepp et al., J. Neural Transmiss., 78:183-193, 1989, the teachings of which are incorporated by reference.

[2] = tested on: Alzheimer's disease; experiment: Amelioration of Alzheimer's disease in post-menopausal women on chronic administration; type: in vivo, human; settings: post-menopausal women with Alzheimer's disease; 60 mg per day oral; after 2-12 months
Source text: Thus, the current invention provides methods for the treatment and prophylaxis of syndromes related to the loss of memory, learning, and cognitive function, often seen in women who are estrogen deprived, especially post-menopausal women. An example of such a syndrome is senile dementia of the Alzheimer's type. Beneficial effects, such as a decrease in memory loss, associated with administration of a compound of this invention become apparent after chronic administration.

[3] = tested on: cognitive and memory functions; experiment: Prophylactic use: cognitive and memory function by standard tests in peri- or post-menopausal women; type: in vivo, human; settings: 60 mg/day oral for 1-5 years
Protocol: The methods of the present invention may also be employed in a prophylactic modality. For example, a group of peri- or post-menopausal women may have their cognitive and memory function evaluated by standard tests. Following the establishment of this baseline, the women are administered raloxifene hydrochloride at 60 mg/day, via the oral route, for a period 1-5 years.

| SMILES | levels of ChAT, difference from the sham controls [1] | levels of ChAT versus the OVX controls [1] | effect on Alzheimer's disease [2] | loss of cognitive and memory functions relative to placebo [3] |
| --- | --- | --- | --- | --- |
| C[C@]12CC[C@@H]3c4ccc(OC(=O)c5ccccc5)cc4CC[C@H]3[C@@H]1CC[C@@H]2O [estradiol benzoate, reference compound] | insignificant difference | significantly (p<0.05) increased |  |  |
| Cl.O=C(c1ccc(OCCN2CCCCC2)cc1)c1c(-c2ccc(O)cc2)sc2cc(O)ccc12 [raloxifene hydrochloride, [2-(4-hydroxyphenyl)-6-hydroxybenzo[b]thien-3-yl][4-[2-(1-piperidinyl)ethoxy]phenyl]methanone hydrochloride] | insignificant difference | significantly (p<0.05) increased | amelioration of their disease | decrease in loss of these functions |

From patent US6395719B1, “Methods for increasing levels of acetylcholine” (Eli Lilly and Company, priority 1998, dated 2002)
